Holding throughout (assay): Broth microdilution MIC
The test system of one assay is E. coli ATCC 25922. The format is cell-based, Escherichia coli. Particulars: for Minimal Inhibitory Concentration: E. coli ATCC 25922; for MIC: Escherichia coli, ATCC25922, E. coli ATCC 25922, read-out: Minimal Inhibitory Concentration. On the procedure: (§1) The process for preparing susceptibility test medium are the following steps: • a. Preparing Mueller Hinton Broth II medium by adding 22 grams powdered media to 1.0 liter distilled water; • b. Autoclaving (121° C., 15 psi, 15 minutes) and cooling the medium; • c. Adding Oxyrase® up to about 10% final volume and keeping at 35-37° C. in an incubator for 30 minutes; • d. Adding about 50 μL to each well of a 96 well microtiter plate; • e. Weighing drug and adding broth to drug to bring up to about (standard 128 μg/ml); • f. Adding 50 μL of the drug to the first column of the titer plate; • g. Diluting by two-fold serial diluting across or down the plate. • h. Preparing a Prompt™ inoculum at 10^8 CFU/ml; • i. Diluting inoculum 1:100 in the broth at […] in 9.9 ml (1:100) is 10^6 colony forming units (CFU) forming the adjusted inoculum; • j. Adding 50 μL of the adjusted inoculum to the wells of the microtiter plate; • k. Incubating the plates at 35-37° C. for 18-22 hours; and • l. Reading, with the unaided eye, the MIC.
(§2) The in vitro activities of tigecycline and control antibiotics were determined by the broth microdilution method as recommended by the NCCLS. (National Committee for Clinical Laboratory Standards, 2003. Methods for Dilution Antimicrobial Susceptibility Tests for Bacteria That Grow Aerobically; Approved Standards: M7-A6, Sixth ed, vol. 23., National Committee for Clinical Laboratory Standards Wayne, Pa.) was used for the standard procedures. MBH with 5% lysed horse blood was used for testing S. pneumoniae and Haemophilus Test Medium was used for testing H. influenzae. Oxyrase® (Oxyrase Inc, Mansfield, Ohio) was used according to the manufacturer's instructions by adding 1 ml of Oxyrase® to 50 ml of media. Media age studies were performed by preparing MHB in multiple flasks, then storing the media under various conditions. MICs were usually performed in duplicate on each day of testing. Storage under anaerobic conditions was conducted in an anaerobic chamber (MACS MG 1000, Don Whitley Scientific LTD). The pH of the media was determined by pH meter (Corning 430). A comparison of the in vitro activity of tigecycline by agar and broth dilution methodolgies with and without Oxyrase® against clinical isolates is shown in Table 1.

The test system of the next assay is S. aureus ATCC 25923. The format is cell-based, Staphylococcus aureus. The note with it: for Minimal Inhibitory Concentration: S. aureus ATCC 25923; for MIC: Staphylococcus aureus, ATCC25923, S. aureus ATCC 25923, read-out: Minimal Inhibitory Concentration. As to the method: as §1, §2
Another assay relates to E. faecalis ATCC 29212. The format is cell-based, Enterococcus faecalis. The note with it: for Minimal Inhibitory Concentration: E. faecalis ATCC 29212; for MIC: Enterococcus faecalis, ATCC29212, E. faecalis ATCC 29212, read-out: Minimal Inhibitory Concentration. On the procedure:
as §1, §2

For another assay, the system named is P. aeruginosa ATCC 27853. The format is cell-based, Pseudomonas aeruginosa. Particulars: for Minimal Inhibitory Concentration: P. aeruginosa ATCC 27853; for MIC: Pseudomonas aeruginosa, ATCC27853, P. aeruginosa ATCC 27853, read-out: Minimal Inhibitory Concentration. As to the method:
as §1, §2

For another assay, the system named is S. aureus ATCC 29213. It is filed as cell-based, Staphylococcus aureus. Particulars: Staphylococcus aureus, ATCC29213, S. aureus ATCC 29213, read-out: Minimal Inhibitory Concentration. On the procedure: as §1, §2
The mark [1] stands for this setting: Mueller Hinton Broth II (Fresh).
The mark [2] stands for this setting: Mueller Hinton Broth II (MHB II).

Converted amounts (≈) assume the structure as drawn. Like-named read-outs stand apart in the source and are kept apart here.

This note sets out measurements from US20050130252A1, “Stabilized susceptibility tests of aerobic pathogens” (Wyeth Holdings Corporation, priority 2003, published 2005).

Regarding `CN(C)CC(=O)Nc1ccc2c(c1O)C(=O)C1=C(O)C3(O)C(=O)C(C(N)=O)=C(O)C(N(C)C)C3CC1C2` (stereo not shown) [DMG-DMDOT, N,N-dimethylglycylamido 9 amino-6-demethyl-6-deoxytetracycline], the “Minimal Inhibitory Concentration” value in the assay on E. coli ATCC 25922 (2% Oxyrase) turned out to be 0.12 µg/mL; in the assay with E. coli ATCC 25922 (No Oxyrase) it was 0.12 µg/mL; in the assay with S. aureus ATCC 25923 (2% Oxyrase), 0.12 µg/mL; in the assay with S. aureus ATCC 25923 (No Oxyrase), 0.25 µg/mL; with E. faecalis ATCC 29212 (2% Oxyrase), 0.06 µg/mL; with E. faecalis ATCC 29212 (No Oxyrase) it was 0.06 µg/mL. The figures for the “Minimal Inhibitory Concentration” value with P. aeruginosa ATCC 27853 (2% Oxyrase) and in the assay on P. aeruginosa ATCC 27853 (No Oxyrase) were 8 µg/mL and 16 µg/mL, respectively.

For `CN(C)CC(=O)Nc1cc(N(C)C)c2c(c1O)C(=O)C1=C(O)C3(O)C(=O)C(C(N)=O)=C(O)C(N(C)C)C3CC1C2` (stereo not shown) [DMG-MINO, N,N-dimethylglycylamido 9-aminominocycline], the “Minimal Inhibitory Concentration” value turned out to be 0.06 µg/mL in the assay with E. coli ATCC 25922 (2% Oxyrase); 0.25 µg/mL with E. coli ATCC 25922 (No Oxyrase); 0.12 µg/mL in the assay on S. aureus ATCC 25923 (2% Oxyrase); 0.50 µg/mL in the assay with S. aureus ATCC 25923 (No Oxyrase); 0.03 µg/mL with E. faecalis ATCC 29212 (2% Oxyrase); 0.25 µg/mL with E. faecalis ATCC 29212 (No Oxyrase). The “Minimal Inhibitory Concentration” value in the assay on P. aeruginosa ATCC 27853 (2% Oxyrase) and in the assay on P. aeruginosa ATCC 27853 (No Oxyrase) was 16 µg/mL throughout.

For `CN(C)c1ccc(O)c2c1C[C@H]1C[C@H]3[C@H](N(C)C)C(O)=C(C(N)=O)C(=O)[C@@]3(O)C(O)=C1C2=O` [Minocycline], the MIC in the assay on E. coli ATCC 25922 (2% Oxyrase) turned out to be 0.5 µg/mL (≈ 1.09 µM); in the assay on E. coli ATCC 25922 (MHB II + 0.05% Catalase), 1 µg/mL; with E. coli ATCC 25922 (MHB II + 0.05% L-ascorbic Acid) it was 4 µg/mL; in the assay with E. coli ATCC 25922 (MHB II + 0.05% L-cysteine), 2 µg/mL; with E. coli ATCC 25922 (MHB II + 0.05% Sodium Pyruvate) it was 0.5 µg/mL; in the assay on E. coli ATCC 25922 (MHB II + 0.05% Thioglycolate), 1 µg/mL. Moreover, the MIC with E. coli ATCC 25922 (MHB II + 2% Oxyrase) was 0.5 µg/mL; in the assay on E. coli ATCC 25922 (setting [1]), 0.5 to 1 µg/mL (≈ 1.09 to 2.19 µM); in the assay on E. coli ATCC 25922 (setting [2]), 0.5 to 1 µg/mL (≈ 1.09 to 2.19 µM); with E. coli ATCC 25922 (No Oxyrase), 1 µg/mL (≈ 2.19 µM); with S. aureus ATCC 25923 (2% Oxyrase), 0.12 µg/mL (≈ 0.262 µM); with S. aureus ATCC 25923 (MHB II + 0.05% Sodium Pyruvate), 0.25 µg/mL. In addition, the MIC is 0.25 µg/mL (≈ 0.546 µM) with S. aureus ATCC 25923 (No Oxyrase); 0.5 µg/mL in the assay on S. aureus ATCC 29213 (MHB II + 0.05% Catalase); 1 µg/mL in the assay with S. aureus ATCC 29213 (MHB II + 0.05% L-ascorbic Acid); 0.25 µg/mL in the assay with S. aureus ATCC 29213 (MHB II + 0.05% L-cysteine); 0.25 µg/mL with S. aureus ATCC 29213 (MHB II + 0.05% Thioglycolate); 0.12 to 0.25 µg/mL in the assay on S. aureus ATCC 29213 (MHB II + 2% Oxyrase). Moreover, the MIC in the assay on S. aureus ATCC 29213 (setting [1]) was 0.12 to 0.5 µg/mL (≈ 0.262 to 1.09 µM); in the assay on S. aureus ATCC 29213 (setting [2]), 0.25 to 0.5 µg/mL (≈ 0.546 to 1.09 µM); with E. faecalis ATCC 29212 (2% Oxyrase) it was 2 µg/mL (≈ 4.37 µM); in the assay on E. faecalis ATCC 29212 (MHB II + 0.05% Catalase), 4 µg/mL; in the assay with E. faecalis ATCC 29212 (MHB II + 0.05% L-ascorbic Acid), 4 µg/mL; in the assay with E. faecalis ATCC 29212 (MHB II + 0.05% L-cysteine), 4 µg/mL. In addition, the MIC with E. faecalis ATCC 29212 (MHB II + 0.05% Sodium Pyruvate) is 2 µg/mL; in the assay on E. faecalis ATCC 29212 (MHB II + 0.05% Thioglycolate), 8 µg/mL; with E. faecalis ATCC 29212 (MHB II + 2% Oxyrase) it was 2 to 4 µg/mL; with E. faecalis ATCC 29212 (setting [1]), 4 µg/mL (≈ 8.74 µM); with E. faecalis ATCC 29212 (setting [2]) it was 4 to 8 µg/mL (≈ 8.74 to 17.5 µM); in the assay on E. faecalis ATCC 29212 (No Oxyrase), 4 µg/mL (≈ 8.74 µM). For the same compound, the MIC with P. aeruginosa ATCC 27853 (2% Oxyrase) is 16 µg/mL (≈ 35 µM); in the assay on P. aeruginosa ATCC 27853 (No Oxyrase), over 16 µg/mL.

For `CN(C)[C@@H]1C(O)=C(C(N)=O)C(=O)[C@@]2(O)C(O)=C3C(=O)c4c(O)cccc4[C@@](C)(O)[C@H]3C[C@@H]12` [Tetracycline], the MIC is 4 µg/mL in the assay on E. coli ATCC 25922 (MHB II + 0.05% Catalase); over 4 µg/mL with E. coli ATCC 25922 (MHB II + 0.05% L-ascorbic Acid); 4 µg/mL with E. coli ATCC 25922 (MHB II + 0.05% L-cysteine); 2 µg/mL in the assay with E. coli ATCC 25922 (MHB II + 0.05% Sodium Pyruvate); 4 µg/mL in the assay with E. coli ATCC 25922 (MHB II + 0.05% Thioglycolate); 1 µg/mL in the assay on E. coli ATCC 25922 (MHB II + 2% Oxyrase). Besides, the MIC in the assay on E. coli ATCC 25922 (setting [1]) is 1 to 2 µg/mL (≈ 2.25 to 4.5 µM); in the assay on E. coli ATCC 25922 (setting [2]), 1 to 2 µg/mL (≈ 2.25 to 4.5 µM); in the assay on S. aureus ATCC 25923 (MHB II + 0.05% Sodium Pyruvate), 1 µg/mL; in the assay on S. aureus ATCC 29213 (MHB II + 0.05% Catalase), 1 µg/mL; in the assay with S. aureus ATCC 29213 (MHB II + 0.05% L-ascorbic Acid), 2 µg/mL; in the assay with S. aureus ATCC 29213 (MHB II + 0.05% L-cysteine), 1 µg/mL. For the same compound, the MIC was 1 µg/mL in the assay with S. aureus ATCC 29213 (MHB II + 0.05% Thioglycolate); 0.5 to 1 µg/mL with S. aureus ATCC 29213 (MHB II + 2% Oxyrase); 1 to 2 µg/mL (≈ 2.25 to 4.5 µM) in the assay with S. aureus ATCC 29213 (setting [1]); 0.5 to 1 µg/mL (≈ 1.13 to 2.25 µM) with S. aureus ATCC 29213 (setting [2]); 16 µg/mL in the assay with E. faecalis ATCC 29212 (MHB II + 0.05% Catalase); over 4 µg/mL in the assay with E. faecalis ATCC 29212 (MHB II + 0.05% L-ascorbic Acid). Besides, the MIC in the assay with E. faecalis ATCC 29212 (MHB II + 0.05% L-cysteine) was over 4 µg/mL; in the assay with E. faecalis ATCC 29212 (MHB II + 0.05% Sodium Pyruvate), 16 µg/mL; in the assay on E. faecalis ATCC 29212 (MHB II + 0.05% Thioglycolate) it was over 16 µg/mL; in the assay with E. faecalis ATCC 29212 (setting [1]), over 4 µg/mL.
